Test results taken from patent US20230295575A1, “METHODS OF INCREASING MATURATION OF HEART, PANCREATIC BETA-CELLS, AND NEURONS” (Yissum Research Development Company of the Hebrew …, priority 2020, published 2023).

Assays:
[1] = test system: stem cell-derived cardiomyocytes; assay: Seahorse MitoStress analysis of stem cell-derived cardiomyocytes; assay type: cell-based, human
Method: (§1) Cells were seeded on Matrigel in mTeSR-1 medium and allowed to reach 80-90% confluence. Cardiac differentiation was conducted as previously described (Burridge, P. W. et al. Chemically defined generation of human cardiomyocytes. Nat Methods 11, 855-860, 2014). Briefly, a basal medium named CDM3 was used (RPMI-1640, 500 µg/mL recombinant human serum albumin, 213 µg/mL L-ascorbic acid 2-phosphate and 1% penicillin/streptomycin). At day zero of differentiation, the medium was replaced with CDM3 supplemented with 6 µmol/L CHIR99021 (Stemgent) for two days. At day two of the differentiation the culture-medium was switched to CDM3 medium supplemented with 2 µM Wnt-C59 (Selleckchem), for additional two days. From day four onward, cells were cultured with RPMI supplemented with B27-I (B27 supplement without Insulin; Gibco, USA). […]
Mitochondrial function was measured using the Seahorse XF Cell Mito Stress Test Kit according to the manufacturer’s instructions (Agilent, Santa Clara, CA). […] The basal oxygen consumption rate (OCR) was measured for 30 minutes and then injected 1 µM oligomycin, a mitochondrial complex V inhibitor that blocks oxidative phosphorylation. […]

[2] = test system: pluripotent stem cells derived cardiomyocytes; assay: Immunofluorescence / cell shape analysis of stem cell-derived cardiomyocytes; assay type: cell-based, human; conditions: OA+9CLA+GW9662
Method: Cultured cells were fixed using 4% paraformaldehyde for 15 minutes at room temperature. Cells were then permeabilized in blocking solution (2% bovine serum albumin (BSA) and 0.25% Triton X-100 in PBS) for one hour at room temperature and incubated with primary antibodies (Table 13 below) for an additional hour. Following washes, cells were incubated with secondary antibodies (Table 14 below) for 1 hour at room temperature in blocking solution, washed twice in PBS and counterstained with 1 µg/ml Hoechest 33258 (Sigma Aldrich, USA) for 5 minutes. Imaging was performed on a Zeiss LSM 700 confocal microscope. Staining of actin was carried out simultaneously with secondary antibody incubation step by adding a 1:100 of Rhodamine-Phalloidin solution. Microscopic single cell and mitochondrial shape analysis was carried out using the CellProfiler software. Mitochondrial elongation was scored from 0 to 1, where 0 corresponds to a circle and 1 to a rectangle.
Cells were seeded on Matrigel in mTeSR-1 medium and allowed to reach 80-90% confluence. Cardiac differentiation was conducted as previously described (Burridge, P. W. et al. Chemically defined generation of human cardiomyocytes. Nat Methods 11, 855-860, 2014). Briefly, a basal medium named CDM3 was used (RPMI-1640, 500 µg/mL recombinant human serum albumin, 213 µg/mL L-ascorbic acid 2-phosphate and 1% penicillin/streptomycin). […]

[3] = biological target: T1, PPARα (Homo sapiens, UniProt Q07869); conditions: cited from earlier work
T1 sequence (Q07869 1-468): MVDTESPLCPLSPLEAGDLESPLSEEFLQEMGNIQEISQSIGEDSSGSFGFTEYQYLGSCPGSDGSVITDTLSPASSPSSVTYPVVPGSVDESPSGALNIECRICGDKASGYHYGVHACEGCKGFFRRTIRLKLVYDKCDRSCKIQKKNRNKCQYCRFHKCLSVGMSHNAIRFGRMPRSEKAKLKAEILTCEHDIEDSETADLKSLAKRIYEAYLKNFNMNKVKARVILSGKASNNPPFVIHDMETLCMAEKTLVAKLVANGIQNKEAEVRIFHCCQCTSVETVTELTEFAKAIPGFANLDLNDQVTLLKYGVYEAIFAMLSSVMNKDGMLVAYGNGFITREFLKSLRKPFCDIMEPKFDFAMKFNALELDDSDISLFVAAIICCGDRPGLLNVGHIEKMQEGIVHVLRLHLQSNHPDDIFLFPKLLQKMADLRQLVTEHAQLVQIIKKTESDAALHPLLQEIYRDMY

[4] = obese adults; cited from earlier work
[5] = healthy individuals; cited from earlier work
[6] = 3 week-old rats; cited from earlier work
[7] = test system: UN1 iPSC; assay: Fatty acid supplementation at different steps of 4-step cardiac differentiation; assay type: cell-based, human; conditions: preliminary studies
Method: FIGS. 3A-B. Addition of OA+9CLA during differentiation impairs differentiation. (A) Light Microscopy of UN1 iPSC during 4-step cardiac differentiation (methods) supplemented with 100 µM oleic acid and 50 µM 9CLA at different steps. […] (B) Quantification of portion of complete well death (left) and portion of beating wells resulted by supplementation with 100 µM oleic acid and 50 µM 9CLA at different steps of the 4-step cardiac differentiation (n=24; methods).
as §1

[8] = test system: human embryonic stem cells; conditions: hESC on mouse fibroblast feeder layers; cited from earlier work
[9] = test system: adipocytes; conditions: short term exposure; cited from earlier work
[10] = test system: human muscle cells; conditions: cited from earlier work
[11] = human subjects; cited from earlier work

O=C(Nc1ccccc1)c1cc([N+](=O)[O-])ccc1Cl [GW9662]
effect of GW9662 on the effect of postnatal lipids, in all cases ([1]; all readouts (respiration, glycolysis, cell area, gene expression), 10 µM GW9662): reversed
effect of GW9662 on fatty acid-induced respiration increase and glycolysis decrease ([1]; short-term exposure to GW9662 with OA+9CLA): reversed both effects
effect of PPARα/γ inhibition on OA+9CLA-induced cell area increase [2]: reversed

CCCCCC/C=C/C=C\CCCCCCCC(=O)O [9CLA, 9Z,11E-octadeca-9,11-dienoic acid]
activity at PPARα [3]: agonist
insulin sensitivity and lipid peroxidation [4]: increasing
low density lipoproteins (LDL) [5]: decreasing
effect of treatment [6]: did not have a beneficial effect

conjugated linoleic acid [CLA]
outcome of addition during cardiomyocyte differentiation [7]: immature fibroblast-like cells that did not start beating
outcome of addition on terminally differentiated beating cardiomyocytes [7]: mature cardiomyocytes
decrease of differentiation of stem cell colonies [8]: 20%
differentiation of mature adipocytes [9]: delayed the differentiation of mature adipocytes
myogenic gene expression [10]: suppressed myogenic gene expression
effect on endothelial function [11]: negative effect
